In US5906922A, “Delivery of nucleic acids” (Commonwealth Scientific and Industrial Research Organisation, priority 1994, dated 1999):
Like-named read-outs stand apart in the source and are kept apart here. Where a SMILES comes first, the peptide text is derived from it. The star is where a group is joined. NHC(CH2O-Palmitoyl)3 = CCCCCCCCCCCCCCCC(=O)OCC(COC(=O)CCCCCCCCCCCCCCC)(COC(=O)CCCCCCCCCCCCCCC)N*; X1 = CCCCCCCCCCCCCCCC(=O)OCC(CO)(CO)N*

Experiments:
[1] = test system: CHO cells; test: Proportion of cells transfected (β-gal staining), CHO; assay type: cell-based, Chinese Hamster
Protocol: (§1) Cell lines Cos 1 or CHO were transfected with 0.5 μg of pSVLCAT or 2 μg of pPGKlacZ plasmid using a range of concentrations of each transfection compound. The optimal concentration of compound, that is the concentration giving the highest level of CAT at 48 hours or the greatest percentage of lac z (β-galactosidase) staining cells at 24 hours was used to collate data for Table 1. As all compounds were not tested in a single experiment, absolute figures indicating transfection were not used. Rather, symbols are used to indicate the transfection efficiency relative to Lipofectamine (BRL), which was included as a control in all experiments. Table 1 thus indicates the relative efficiencies of a number of compounds in mediating the transfection of at least one cell type.
These conjugates were used to transfect CHO and Cos 1 cells with pPGKlacZNLS for estimation of the proportion of cells transfected. The transfection conditions used were as described above for the CAT experiments with cells being grown in 35 mm dishes for transfection. Cells were seeded the day prior to transfection at a density of 3.4×10^5 /dish (Cos 1) or 6.8×10^4 /dish (CHO). […] Random fields of cells were examined under the light microscope and the proportion of blue (β-GAL expressing) cells was determined. […]

[2] = test system: CHO cells; test: Transfection of pSVLCAT, CAT assay, CHO; assay type: cell-based, Chinese Hamster; settings: for Transfection (CAT): Table 1, CHO, optimised level of agent
Protocol: Protocol was the same for Verafectin and Transfectam (see above) with the exception that 0.5 μg of pSVLCAT DNA was used /60 mm dish.
Lipofectamine protocol was according to manufacturer's instructions. 0.5 μg pSVLCAT/60 mm dish. CHO cells seeded 1×10^5 /60 mm dish and adhered overnight in DME/Hams medium with 10% FCS.
Transfectam 5 or 10 μl 1mg/400 μl stock solution.
Lipofectamine 5 or 10 μl 2 mg/ml (mixed formulation 3:1 with DOPE). VerafectinA3 (K3ATP3) and VerafectinG2 (K3G[Glycine]TP2) each at 5, 10 and 15 μl of 2 mM (2.8 and 2.3 mg/ml respectively) stock.
The serum free incubation period in the presence of test agents and DNA was 6 hours, then 1 ml DME/Hams+10% FCS was added. At 24 hrs the medium was changed to 2 ml of fresh DME/Hams+10% FCS until harvest at 48 hrs.
as §1
All test lipopeptide reagents were originally dissolved at 10 mM in 75% DMSO, and subsequently diluted with water to make a 2 mM stock stored at 4° C. Volumes of 2 mM stock lipopeptide ranging from 2 μl to 15 μl were diluted in 500 μl of DDME. 1 μg of plasmid pSVLCAT was separately diluted in 500 μl of DDME. Solutions were combined for 10-20 min at room temperature before adding to 500 μl of DDME in 60 mm dishes of subconfluent CHO cells (2×10^5 day-1) or Cos 1 cells (5×10^5 day-1); washed free of serum with DDME.
Cells were incubated for 6 hrs under standard conditions of 37° C. and 5% CO2 for 6 hours. 1.5 ml of DME/Hams+10% FCS (CHO) or DME+10% FCS (Cos 1) was added to the cells for overnight incubation. Fresh DME/Hams+10% FCS or DME+10% FCS was used to replace the medium for a further 24 hours prior to harvest. Cell lysates were prepared and assayed for CAT activity as described above. For Cos 1 cells, culture supernatants were assayed for CAT activity.
a. Using the standard transfection procedure described above, and 1 μg plasmid pSVLCAT, these formulations were tested on CHO cells at a single concentration equivalent to 10 μl of Verafectin A2 (2 mM) per sample and compared to unformulated compound and Lipofectamine in the same cell type. CAT production was assayed 48 hours after transfection.

[3] = test system: Cos 1 cells; test: β-gal microtitre plate transfection assay, Cos 1; assay type: cell-based, African Green Monkey; settings: for β-gal (Cos 1): Table 3, Cos 1, highest reading of 72 conditions
In short: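 Cos 1 cells were transfected with β-galactosidase plasmids (mouse PGK or SV40 early promoter) across varied lipid/DNA ratios in microtitre format. The lipid/DNA ratio giving maximal expression was recorded. Viability was measured with alamar blue or MTS, where higher OD means greater viability.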

[4] = test system: Hela cells; test: β-gal plate transfection assay, Hela; assay type: cell-based, Human; settings: 48 hours
Protocol: Hela cells were seeded in place of Cosl or CHO cells in DME+10% FCS at a density of 2×10^4 /well and transfected with pPGKlaczNLS as described above. At 48 hours, toxicity was determined by alamar blue and the cells processed for the β-gal assay.

[5] = test system: Cos 1 cells; assay type: cell-based, African Green Monkey
Description: (§2) Relative levels of cytotoxicity caused by the different agents were compared during the experiment using the dye "Alamar Blue" (Alamar, Sacramento Calif.).
(§3) For experiment "c", a plasmid pPGKlaczNLS encoding β-galactosidase under the control of the mouse PGK promoter (kind gift from G.Hannan) or pSVGAL which utilises the SV40 early promoter (Sleigh, M. J. and Lockett, T. J. (1985). EMBO J. 4:3831-3837),was transfected. This experiment and assay were modified from Feigner et al J. Biol Chem. 269(4) 2550-2561 1994. This protocol allows the simultaneous assessment of 72 different combinations and concentrations of DNA and test agent in a microtitre tray. […] Cytotoxicity was assessed using alamar blue, and a sample graph is shown for experiment a.
The ratio of [lipid]/[DNA] at which that maximum was achieved is shown. Experiments shown were carried out in Cos 1 cells, as described above. MTS OD is a measure of relative viabilility of the cells exposed to the different agents, a higher value indicates greater cell viability. * These points were taken from a separate experiment and some slight variation between absolute numbers should be expected between experiments.
(§4) The ratio of [lipid]/[DNA] at which that maximum was achieved is shown in brackets for the two different cell types in the following order; (Cos 1) (CHO). Experiments shown were carried out in Cos 1 cells, as described above. Viability was measured with the dye alamar blue . # Denotes compounds tested in a separate experiment. * Viability in this experiment was determined with MTS. OD is a measure of relative viability of the cells exposed to the different agents, and as with alamar blue, a higher value indicates greater cell viability.

[6] = test system: CHO cells; assay type: cell-based, Chinese Hamster
Protocol: (LEGEND--FIGS. 7, 8 and 9; none; no agent used with plasmid DNA, rb/blank; reagent blank, number following description of compound indicates no. μl of 2 mM stock (diluted with water). 7b: 100% cell survival was taken from dishes which were "mock transfected" with no DNA or transfection agent. 0% viability was assayed in the absence of cells. Viability was assessed using the dye alamar blue.)
as §2, §4

[7] = test system: CHO cells; test: β-gal microtitre plate transfection assay, CHO; assay type: cell-based, Chinese Hamster; settings: Table 3, CHO, highest reading of 72 conditions
Description: as §3
Each of these compounds was tested for transfection ability and cytotoxicity on standard cell lines using standard conditions as described above.
as §4

[8] = test system: Cos 1 cells; test: Transfection of pSVLCAT, CAT assay, Cos 1; assay type: cell-based, African Green Monkey; settings: for Transfection (CAT): Table 1, Cos 1, optimised level of agent
[9] = test system: mammalian cells; test: Transfection efficiency, general conclusions over cell lines; assay type: cell-based; settings: other experiments (not shown)
Protocol: as §1
The compounds of the generic formula described on page 3 were addressed as consisting of the described basic building blocks: "x, y, R1-R4". These components were systematically varied to assess the optimal building blocks for transfection of standard cell lines in a standard assay system. Results will be presented by the use of example experiments, and shown as the levels of reporter gene expression achieved under standard conditions by either overall levels (CAT or β-galactosidase expression) or as % cells transfected (β-galactosidase--blue cells). Representative levels of cytotoxicity will also be described. […]

[10] = test system: Cos 1 cells; assay type: cell-based, African Green Monkey; remark: listed apart in the source
In short: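 Relative viability of Cos 1 cells exposed to lipid/DNA agents was read as MTS optical density; higher OD means greater viability. Some points came from separate experiments.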

[11] = test system: Cos 1 cells; test: Proportion of cells transfected (β-gal staining), Cos 1; assay type: cell-based, African Green Monkey; settings: Table 1, Cos 1, % of cells
Protocol: as §1
These conjugates were used to transfect CHO and Cos 1 cells with pPGKlacZNLS for estimation of the proportion of cells transfected. The transfection conditions used were as described above for the CAT experiments with cells being grown in 35 mm dishes for transfection. Cells were seeded the day prior to transfection at a density of 3.4×10^5 /dish (Cos 1) or 6.8×10^4 /dish (CHO). […] Random fields of cells were examined under the light microscope and the proportion of blue (β-GAL expressing) cells was determined.

In the case of `CCCCCCCCCCCCCCCC(=O)OCC(COC(=O)CCCCCCCCCCCCCCC)(COC(=O)CCCCCCCCCCCCCCC)NC(=O)[C@H](C)N` [K0ATP3], the “transfection (β-gal assay)” value ([1]; CHO cells) is reported as “low levels of transfection” and the CAT transfection ([2]; "x" peptide experiment a, CHO) is reported as “no measurable transfection”.
For `CCCCCCCCCC(=O)OCC(COC(=O)CCCCCCCCC)(COC(=O)CCCCCCCCC)NC(=O)[C@H](C)NC(=O)[C@H](CCCCN)NC(=O)[C@H](CCCCN)NC(=O)[C@@H](N)CCCCN` [K3ATC3], the “ratio [lipid]/[DNA] at which maximum was achieved” value (shortened to “ratio [lipid]/[DNA]”) ([3]; Table 3, Cos 1) was 2.77, the “β-gal (Cos 1)” value [3] was 9.08 × 10^-6 and the “transfection ability, chain length C10 to C16” value [4] was “transfection ability was seriously curtailed”. The “Viability (Cos 1)” value [5] was 0.104, the “Viability (CHO)” value [6] was 0.052 and the “β-gal (CHO)” value [7] was 5.27 × 10^-6.
`CCCCCCCCCCCCCCCC(=O)OCC(CO)(CO)NC(=O)[C@H](C)NC(=O)[C@H](CCCCN)NC(=O)[C@H](CCCCN)NC(=O)[C@@H](N)CCCCN` [K3ATP1, trilysine alanine tris monopalmitate] (H-KKKA-X1) was tested, and the “Transfection (CAT)” value [8] was “+”, the “ratio [lipid]/[DNA]” value ([3]; Table 2, Cos 1) was 5.55 and the “units β-gal” value ([3]; Table 2, Cos 1, highest reading of 72 conditions) was 9.32 × 10^-6 units. For the same molecule, the “ratio [lipid]/[DNA]” value ([3]; Table 3, Cos 1) was 5.55, the “β-gal (Cos 1)” value [3] was 9.32 × 10^-6 and the “activity relative to tripalmitate K3 molecules” value [9] was 30%. The “MTS OD490-655” value [10] was 1.34, the “Viability (Cos 1)” value [10] was 1.34 and the “Transfection (CAT)” value [2] was “+”.
For `CCCCCCCCCCCCCCCC(=O)OCC(CO)(COC(=O)CCCCCCCCCCCCCCC)NC(=O)CNC(=O)[C@H](CCCCN)NC(=O)[C@H](CCCCN)NC(=O)[C@@H](N)CCCCN` [K3GTP2], the “transfection level relative to Lipofectamine” value ([8]; Experiment 4, Cos 1, 48 hours) was about 30%, the “effect of equimolar DOPE on transfection efficiency” value ([8]; Experiment 4, Cos 1, compared to VerafectinG2 alone) was “approximate doubling of transfection efficiency” and the “transfection level with equimolar DOPE relative to Lipofectamine” value ([8]; Experiment 4, Cos 1, plus equimolar unformulated DOPE) was “approximately 60%”. The “Transfection (CAT)” value [8] was “++”, the “Transfection (βGal)” value ([1]; Table 1, CHO, % of cells) was under 1% and the “CAT levels relative to Lipofectamine” value ([2]; Experiment 3, CHO, 5 μl) was about 22%. For the same molecule, the “CAT levels relative to Transfectam” value ([2]; Experiment 3, CHO, 5 μl) was “approximately 64%” and the “Transfection (CAT)” value [2] was “+++”.
For `CCCCCCCCCCCCCCCC(=O)OCC(COC(=O)CCCCCCCCCCCCCCC)(COC(=O)CCCCCCCCCCCCCCC)NC(=O)[C@H](C)NC(=O)[C@H](CCCCN)NC(=O)[C@H](CCCCN)NC(=O)[C@H](CCCCN)NC(=O)[C@@H](N)CCCCN` [K4ATP3] (H-KKKKA-{NHC(CH2O-Palmitoyl)3}), the “transfection, one to three palmitates, tetra lysine alanine” value ([8]; R1-R4 experiment g, Cos 1) was “more effective than the di or monopalmitate”, the “Transfection (CAT)” value [8] was “+(+)” and the “Transfection (βGal)” value [11] was under 1%. For the same molecule, the “mean level of CAT activity” value ([2]; "x" peptide experiment c, CHO, 2 hours incubation of 20 μl lysate) was 1071.
